Data on 15 molecules can be found in patent US9073855B2, “BCL-2 selective apoptosis-inducing agents for the treatment of cancer and immune diseases” (AbbVie Inc., priority 2008, dated 2015).

Molecules are shown by their SMILES. pEC50, pKi: −log10 of the molar value.

The target of one assay is GST-Bcl-2 (Homo sapiens, UniProt P10415). The assay can be described thus: TR-FRET binding assay, GST-Bcl-2 with F-Bak peptide probe. Conditions: TR-FRET Binding Affinity, GST-Bcl-2, F-Bak peptide probe. In outline: (§1)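 Competitive TR-FRET: GST-fusion protein, fluorescent Bak peptide probe and Tb-labelled anti-GST antibody incubated with compound dilution series (starting 50 μM as 2× stock, 10% DMSO) for 3 h at RT. Excitation 340/35 nm; Ki derived via Wang's exact competitive-binding equation.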
GST-Bcl-2, sequence (P10415 whole entry, the tested form may be a part): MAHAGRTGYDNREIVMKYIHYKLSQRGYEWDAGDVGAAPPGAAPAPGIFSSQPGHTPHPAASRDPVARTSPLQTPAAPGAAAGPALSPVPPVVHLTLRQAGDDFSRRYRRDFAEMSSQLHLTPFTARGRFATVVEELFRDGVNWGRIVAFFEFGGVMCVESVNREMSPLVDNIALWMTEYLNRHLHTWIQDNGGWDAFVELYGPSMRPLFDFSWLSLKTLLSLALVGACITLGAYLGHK

Another assay relates to Canine platelets. The assay can be described thus: Platelet cell viability assay (platelet-rich plasma, Cell Titer Glo). The format is cell-based. As to conditions: Canis lupus familiaris, 5 h, isolated canine platelets ex vivo, five hours at 37° C. The gist of the method: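 Isolated canine platelets were incubated ex vivo with a range of compound concentrations. After 20 min equilibration at room temperature, viability was measured by Cell Titer Glo luminescence.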

In another assay the target is GST-Bcl-XL (Homo sapiens, UniProt Q07817). The assay can be described thus: TR-FRET binding assay, GST-Bcl-XL with F-Bak peptide probe. Conditions: TR-FRET Binding Affinity, GST-Bcl-XL, F-Bak peptide probe. In outline: as §1
GST-Bcl-XL, sequence (Q07817 whole entry): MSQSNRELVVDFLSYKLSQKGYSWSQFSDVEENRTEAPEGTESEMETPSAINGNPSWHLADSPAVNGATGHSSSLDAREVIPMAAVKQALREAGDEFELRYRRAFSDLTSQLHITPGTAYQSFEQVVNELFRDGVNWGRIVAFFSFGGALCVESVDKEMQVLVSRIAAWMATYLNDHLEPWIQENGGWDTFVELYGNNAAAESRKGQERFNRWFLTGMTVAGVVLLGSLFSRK
The subject of a further assay is FL5.12/Bcl-2 cells. The assay can be described thus: FL5.12/Bcl-2 cell viability assay under IL-3 withdrawal (CellTitre Glo). The assay is classed as cell-based, murine. Conditions: Mus musculus, IL-3 withdrawn 48 hrs, then 24 hrs with compound. In outline:
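Murine IL-3-dependent FL5.12 cells stably overexpressing Bcl-2 were deprived of IL-3 (WEHI-3B conditioned medium omitted) for 48 hrs, then exposed to various compound concentrations for a further 24 hrs at 37° C, 5% CO2. Viability was read by CellTitre Glo luminescence.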

Take `CN(C)CCOc1ccc(-c2ccc(Cl)cc2)c(CN2CCN(c3ccc(C(=O)NS(=O)(=O)c4ccc(NCC5CCOCC5)c([N+](=O)[O-])c4)c(Oc4cccc5[nH]ccc45)c3)CC2)c1` [Example 125, 4-[4-({4′-chloro-4-[2-(dimethylamino)ethoxy]-1,1′-biphenyl-2-yl}methyl)piperazin-1-yl]-2-(1H-indol-4-yloxy)-N-({3-nitro-4-[(tetrahydro-2H-pyran-4-ylmethyl)amino]phenyl}sulfonyl)benzamide]: the values for the pKi on GST-Bcl-2 and at GST-Bcl-XL were 11.52 and 7.93, respectively. The pEC50 in the assay on Canine platelets was 4.35; in the assay on FL5.12/Bcl-2 cells, 8.00.

In the case of `CN(C)CCOc1ccc(-c2ccc(Cl)cc2)c(CN2CCN(c3ccc(C(=O)NS(=O)(=O)c4ccc(NCC5CCOCC5)c([N+](=O)[O-])c4)c(Oc4ccc5[nH]ccc5c4)c3)CC2)c1` [Example 126, 4-[4-({4′-chloro-4-[2-(dimethylamino)ethoxy]-1,1′-biphenyl-2-yl}methyl)piperazin-1-yl]-2-(1H-indol-5-yloxy)-N-({3-nitro-4-[(tetrahydro-2H-pyran-4-ylmethyl)amino]phenyl}sulfonyl)benzamide], the pKi was 10.92 on GST-Bcl-2 and 6.79 on GST-Bcl-XL. The pEC50 with Canine platelets was under 4.30; in the assay with FL5.12/Bcl-2 cells, 7.51.

For the molecule `CN(C)CCOc1cccc(-c2ccc(Cl)cc2)c1CN1CCN(c2ccc(C(=O)NS(=O)(=O)c3ccc(NCC4CCOCC4)c([N+](=O)[O-])c3)c(Oc3cccc4[nH]ccc34)c2)CC1` [Example 128, 4-[4-({4′-chloro-3-[2-(dimethylamino)ethoxy]-1,1′-biphenyl-2-yl}methyl)piperazin-1-yl]-2-(1H-indol-4-yloxy)-N-({3-nitro-4-[(tetrahydro-2H-pyran-4-ylmethyl)amino]phenyl}sulfonyl)benzamide], the pKi at GST-Bcl-2 is 10.29; on GST-Bcl-XL, 6.44. Also, the negative logarithm of the EC50 (pEC50) in the assay with Canine platelets was under 4.30; with FL5.12/Bcl-2 cells it was 7.60.

Regarding `O=C(NS(=O)(=O)c1ccc(NCC2CCOCC2)c([N+](=O)[O-])c1)c1ccc(N2CCN(Cc3cc(OCCN4CCOCC4)ccc3-c3ccc(Cl)cc3)CC2)cc1Oc1cccc2[nH]ccc12` [Example 130, 4-(4-{[4′-chloro-4-(2-morpholin-4-ylethoxy)-1,1′-biphenyl-2-yl]methyl}piperazin-1-yl)-2-(1H-indol-4-yloxy)-N-({3-nitro-4-[(tetrahydro-2H-pyran-4-ylmethyl)amino]phenyl}sulfonyl)benzamide], the pKi on GST-Bcl-2 is 9.85; at GST-Bcl-XL, under 6.18. For the same molecule, the pEC50 in the assay with Canine platelets was under 4.30; in the assay with FL5.12/Bcl-2 cells it was 6.71.

Consider `O=C(NS(=O)(=O)c1ccc(NCC2CCOCC2)c([N+](=O)[O-])c1)c1ccc(N2CCN(Cc3c(OCCN4CCOCC4)cccc3-c3ccc(Cl)cc3)CC2)cc1Oc1cccc2[nH]ccc12` [Example 131, 4-(4-{[4′-chloro-3-(2-morpholin-4-ylethoxy)-1,1′-biphenyl-2-yl]methyl}piperazin-1-yl)-2-(1H-indol-4-yloxy)-N-({3-nitro-4-[(tetrahydro-2H-pyran-4-ylmethyl)amino]phenyl}sulfonyl)benzamide], for which the pKi at GST-Bcl-2 was 9.97; at GST-Bcl-XL it was 6.61. Also, the pEC50 is under 4.30 in the assay on Canine platelets and 7.51 in the assay on FL5.12/Bcl-2 cells.

For the molecule `O=C(NS(=O)(=O)c1ccc(NCC2CCOCC2)c([N+](=O)[O-])c1)c1ccc(N2CCN(Cc3c(OCCN4CCOCC4)cccc3-c3ccc(Cl)cc3)CC2)cc1Oc1ccc2[nH]ccc2c1` [Example 132, 4-(4-{[4′-chloro-3-(2-morpholin-4-ylethoxy)-1,1′-biphenyl-2-yl]methyl}piperazin-1-yl)-2-(1H-indol-5-yloxy)-N-({3-nitro-4-[(tetrahydro-2H-pyran-4-ylmethyl)amino]phenyl}sulfonyl)benzamide], the pKi at GST-Bcl-2 was 9.26; on GST-Bcl-XL, 6.50. For the same molecule, the pEC50 was under 4.30 with Canine platelets and 7.38 in the assay with FL5.12/Bcl-2 cells.

Turning to `CN(C)CCOc1ccc(-c2ccc(Cl)cc2)c(CN2CCN(c3ccc(C(=O)NS(=O)(=O)c4ccc(NC5CCN(C)CC5)c([N+](=O)[O-])c4)c(Oc4ccccc4)c3)CC2)c1` [Example 133, 4-[4-({4′-chloro-4-[2-(dimethylamino)ethoxy]-1,1′-biphenyl-2-yl}methyl)piperazin-1-yl]-N-({4-[(1-methylpiperidin-4-yl)amino]-3-nitrophenyl}sulfonyl)-2-phenoxybenzamide], the pKi was 11.05 on GST-Bcl-2 and 9.55 at GST-Bcl-XL. The pEC50 in the assay on Canine platelets is 7.02; with FL5.12/Bcl-2 cells, 7.70.

Consider `CN(C)CCOc1cccc(-c2ccc(Cl)cc2)c1CN1CCN(c2ccc(C(=O)NS(=O)(=O)c3ccc(NCCCN4CCCC4)c([N+](=O)[O-])c3)c(Oc3ccc4[nH]ccc4c3)c2)CC1` [Example 134, 4-[4-({4′-chloro-3-[2-(dimethylamino)ethoxy]-1,1′-biphenyl-2-yl}methyl)piperazin-1-yl]-2-(1H-indol-5-yloxy)-N-({3-nitro-4-[(3-pyrrolidin-1-ylpropyl)amino]phenyl}sulfonyl)benzamide], for which the pKi on GST-Bcl-2 is 10.28; on GST-Bcl-XL, 7.74. Also, the pEC50 was 5.33 with Canine platelets and 7.32 in the assay with FL5.12/Bcl-2 cells.

For the molecule `CN(C)CCOc1ccc(-c2ccc(Cl)cc2)c(CN2CCN(c3ccc(C(=O)NS(=O)(=O)c4ccc(NCCCN5CCCC5)c([N+](=O)[O-])c4)c(Oc4ccc5[nH]ccc5c4)c3)CC2)c1` [Example 135, 4-[4-({4′-chloro-4-[2-(dimethylamino)ethoxy]-1,1′-biphenyl-2-yl}methyl)piperazin-1-yl]-2-(1H-indol-5-yloxy)-N-({3-nitro-4-[(3-pyrrolidin-1-ylpropyl)amino]phenyl}sulfonyl)benzamide], the values for the pKi at GST-Bcl-2 and on GST-Bcl-XL were 11.10 and 8.20, respectively. Besides, the pEC50 in the assay with Canine platelets is 5.34; with FL5.12/Bcl-2 cells, 7.38.

For the molecule `O=C(NS(=O)(=O)c1ccc(NCCCN2CCCC2)c([N+](=O)[O-])c1)c1ccc(N2CCN(Cc3cc(OCCN4CCOCC4)ccc3-c3ccc(Cl)cc3)CC2)cc1Oc1ccc2[nH]ccc2c1` [Example 136, 4-(4-{[4′-chloro-4-(2-morpholin-4-ylethoxy)-1,1′-biphenyl-2-yl]methyl}piperazin-1-yl)-2-(1H-indol-5-yloxy)-N-({3-nitro-4-[(3-pyrrolidin-1-ylpropyl)amino]phenyl}sulfonyl)benzamide], the results for the negative logarithm of the Ki (pKi) on GST-Bcl-2 and at GST-Bcl-XL were 9.59 and 7.21, respectively. The figures for the pEC50 in the assay with Canine platelets and in the assay on FL5.12/Bcl-2 cells were under 4.30 and 6.72, respectively.

In the case of `CN(C)CCOc1ccc(-c2ccc(Cl)cc2)c(CN2CCN(c3ccc(C(=O)NS(=O)(=O)c4ccc(NC5CCN(CC(F)(F)F)CC5)c([N+](=O)[O-])c4)c(Oc4ccccc4)c3)CC2)c1` [Example 137, 4-[4-({4′-chloro-4-[2-(dimethylamino)ethoxy]-1,1′-biphenyl-2-yl}methyl)piperazin-1-yl]-N-[(3-nitro-4-{[1-(2,2,2-trifluoroethyl)piperidin-4-yl]amino}phenyl)sulfonyl]-2-phenoxybenzamide], the values for the pKi at GST-Bcl-2 and on GST-Bcl-XL were 9.52 and 7.80, respectively. Moreover, the pEC50 in the assay with Canine platelets is under 4.30; in the assay with FL5.12/Bcl-2 cells, 6.55.

Take `O=C(NS(=O)(=O)c1ccc(NCC2CCOCC2)c([N+](=O)[O-])c1)c1ccc(N2CCN(Cc3cc(OCCN4CCCC4)ccc3-c3ccc(Cl)cc3)CC2)cc1Oc1ccccc1` [Example 138, 4-(4-{[4′-chloro-4-(2-pyrrolidin-1-ylethoxy)-1,1′-biphenyl-2-yl]methyl}piperazin-1-yl)-N-({3-nitro-4-[(tetrahydro-2H-pyran-4-ylmethyl)amino]phenyl}sulfonyl)-2-phenoxybenzamide]: the pKi on GST-Bcl-2 is 11.05; on GST-Bcl-XL, 8.29. In addition, the pEC50 in the assay with Canine platelets is 4.75; in the assay on FL5.12/Bcl-2 cells, 7.54.

For the molecule `CC(C)N(CCOc1ccc(-c2ccc(Cl)cc2)c(CN2CCN(c3ccc(C(=O)NS(=O)(=O)c4ccc(NCC5CCOCC5)c([N+](=O)[O-])c4)c(Oc4ccccc4)c3)CC2)c1)C(C)C` [Example 139, 4-[4-({4′-chloro-4-[2-(diisopropylamino)ethoxy]-1,1′-biphenyl-2-yl}methyl)piperazin-1-yl]-N-({3-nitro-4-[(tetrahydro-2H-pyran-4-ylmethyl)amino]phenyl}sulfonyl)-2-phenoxybenzamide], the pKi at GST-Bcl-2 is 10.00; at GST-Bcl-XL it was 7.98. Moreover, the figures for the pEC50 in the assay with Canine platelets and in the assay on FL5.12/Bcl-2 cells were 4.41 and 7.34, respectively.

Take `O=C(NS(=O)(=O)c1ccc(NCC2CCOCC2)c([N+](=O)[O-])c1)c1ccc(N2CCN(Cc3ccccc3-c3ccc(Cl)cc3)CC2)cc1Oc1ccc2c(c1)CCN2` [Example 140, 4-{4-[(4′-chloro-1,1′-biphenyl-2-yl)methyl]piperazin-1-yl}-2-(2,3-dihydro-1H-indol-5-yloxy)-N-({3-nitro-4-[(tetrahydro-2H-pyran-4-ylmethyl)amino]phenyl}sulfonyl)benzamide]: the results for the pKi at GST-Bcl-2 and on GST-Bcl-XL were 8.33 and under 6.18, respectively. For the same molecule, the pEC50 with Canine platelets was under 4.30; with FL5.12/Bcl-2 cells, 5.67.

For the molecule `O=C(NS(=O)(=O)c1ccc(NCCCN2CCCC2)c([N+](=O)[O-])c1)c1ccc(N2CCN(CC3=C(c4ccc(Cl)cc4)CCCCC3)CC2)cc1Oc1cccc2[nH]ccc12` [Example 141, 4-(4-{[2-(4-chlorophenyl)cyclohept-1-en-1-yl]methyl}piperazin-1-yl)-2-(1H-indol-4-yloxy)-N-({3-nitro-4-[(3-pyrrolidin-1-ylpropyl)amino]phenyl}sulfonyl)benzamide], the figures for the pKi on GST-Bcl-2 and on GST-Bcl-XL were 9.17 and 7.54, respectively. Besides, the pEC50 in the assay on Canine platelets was under 4.30; with FL5.12/Bcl-2 cells, 7.12.
